Laboratory results: article PMC5218480 (PLoS ONE, 2017)

Tested on: MV-4-11 cells
Experiment: Gene expression microarray analysis (Affymetrix PrimeView) and GSEA
Format: cell-based, human
Parameters: RFU PODN (11730768_x_at) / Fold change /veh PODN (11730768_x_at) / RFU LINC00158 (11744669_a_at) / Fold change /veh LINC00158 (11744669_a_at) / RFU DUSP10 (11751237_a_at) / Fold change /veh DUSP10 (11751237_a_at) / RFU ID3 (11757404_x_at) / Fold change /veh ID3 (11757404_x_at) / RFU PLEKHG5 (11737974_s_at) / Fold change /veh PLEKHG5 (11737974_s_at) / RFU LRRC4B (11730491_at) / Fold change /veh LRRC4B (11730491_at) / RFU GIMAP4 (11747438_a_at) / Fold change /veh GIMAP4 (11747438_a_at) / RFU KRT8 (11758183_x_at) / Fold change /veh KRT8 (11758183_x_at) / RFU CNN1 (11734310_a_at) / Fold change /veh CNN1 (11734310_a_at) / RFU VPS37D (11726825_at) / Fold change /veh VPS37D (11726825_at) / RFU C10orf10 (11716522_x_at) / Fold change /veh C10orf10 (11716522_x_at) / RFU KIR2DL2 /// KIR2DL4 /// KIR2DL5A /// KIR2DL5B /// KIR2DS1 /// KIR2DS2 /// KIR2DS3 /// KIR2DS4 /// KIR3DL3 /// KIR3DL3 /// KIR3DS1 (11738374_at) / Fold change /veh KIR2DL2 /// KIR2DL4 /// KIR2DL5A /// KIR2DL5B /// KIR2DS1 /// KIR2DS2 /// KIR2DS3 /// KIR2DS4 /// KIR3DL3 /// KIR3DL3 /// KIR3DS1 (11738374_at) / RFU C1QL1 (11718748_at) / Fold change /veh C1QL1 (11718748_at) / RFU TMPRSS4 (11747572_a_at) / Fold change /veh TMPRSS4 (11747572_a_at) / RFU HAMP (11756126_x_at) / Fold change /veh HAMP (11756126_x_at) / RFU RNFT2 (11725882_a_at) / Fold change /veh RNFT2 (11725882_a_at) / RFU NR4A2 (11747474_a_at) / Fold change /veh NR4A2 (11747474_a_at) / RFU ABCC12 (11746883_a_at) / Fold change /veh ABCC12 (11746883_a_at) / RFU TMEM136 (11760407_x_at) / Fold change /veh TMEM136 (11760407_x_at) / RFU CLDN22 /// WWC2 (11732394_at) / Fold change /veh CLDN22 /// WWC2 (11732394_at) / RFU HLA-DPB1 (11760878_x_at) / Fold change /veh HLA-DPB1 (11760878_x_at) / RFU SPINT1 (11716480_a_at) / Fold change /veh SPINT1 (11716480_a_at) / RFU GAP43 (11754022_s_at) / Fold change /veh GAP43 (11754022_s_at) / RFU A4GNT (11735810_at) / Fold change /veh A4GNT (11735810_at) / RFU PRB3 (11715151_x_at) / Fold change /veh PRB3 (11715151_x_at) / RFU TUBB4B (11761932_at) / Fold change /veh TUBB4B (11761932_at) / RFU CAPN14 (11732068_a_at) / Fold change /veh CAPN14 (11732068_a_at) / RFU TMCC2 (11721928_a_at) / Fold change /veh TMCC2 (11721928_a_at) / RFU IRGQ (11745062_a_at) / Fold change /veh IRGQ (11745062_a_at) / RFU FAM174B (11720279_a_at) / Fold change /veh FAM174B (11720279_a_at) / RFU TMPRSS4 (11748680_a_at) / Fold change /veh TMPRSS4 (11748680_a_at) / RFU FAM212B (11763350_a_at) / Fold change /veh FAM212B (11763350_a_at) / RFU PLEKHG5 (11743358_a_at) / Fold change /veh PLEKHG5 (11743358_a_at) / RFU ZSCAN30 (11745921_a_at) / Fold change /veh ZSCAN30 (11745921_a_at) / RFU CMKLR1 (11741424_a_at) / Fold change /veh CMKLR1 (11741424_a_at) / RFU LOC101060620 /// MAPK8IP1 (11723275_at) / Fold change /veh LOC101060620 /// MAPK8IP1 (11723275_at) / RFU SPTSSB (11747773_x_at) / Fold change /veh SPTSSB (11747773_x_at) / RFU PRSS12 (11739890_at) / Fold change /veh PRSS12 (11739890_at) / RFU BIN1 (11741810_x_at) / Fold change /veh BIN1 (11741810_x_at) / RFU WNT11 (11732464_a_at) / Fold change /veh WNT11 (11732464_a_at) / RFU C10orf10 (11716521_a_at) / Fold change /veh C10orf10 (11716521_a_at) / RFU C5orf56 (11738089_at) / Fold change /veh C5orf56 (11738089_at) / RFU CYB561 (11721691_x_at) / Fold change /veh CYB561 (11721691_x_at) / RFU ANKRD19P (11752326_a_at) / Fold change /veh ANKRD19P (11752326_a_at) / RFU OR2T12 /// OR2T33 /// OR2T8 (11738714_s_at) / Fold change /veh OR2T12 /// OR2T33 /// OR2T8 (11738714_s_at) / RFU VCAN (11748164_a_at) / Fold change /veh VCAN (11748164_a_at) / RFU JSRP1 (11732532_at) / Fold change /veh JSRP1 (11732532_at) / RFU KRTAP10-11 (11738290_x_at) / Fold change /veh KRTAP10-11 (11738290_x_at) / RFU MYO3A (11730013_a_at) / Fold change /veh MYO3A (11730013_a_at) / RFU EBF3 (11725865_a_at) / Fold change /veh EBF3 (11725865_a_at) / RFU CAMK2N1 (11719241_x_at) / Fold change /veh CAMK2N1 (11719241_x_at) / RFU C5orf56 (11738088_a_at) / Fold change /veh C5orf56 (11738088_a_at) / RFU OLFML3 (11715873_a_at) / Fold change /veh OLFML3 (11715873_a_at) / RFU LOC100653217 /// NTM (11731650_a_at) / Fold change /veh LOC100653217 /// NTM (11731650_a_at) / RFU MAPK11 (11762145_a_at) / Fold change /veh MAPK11 (11762145_a_at) / RFU FIZ1 (11724087_x_at) / Fold change /veh FIZ1 (11724087_x_at) / RFU OASL (11726364_x_at) / Fold change /veh OASL (11726364_x_at) / RFU SOX15 (11748057_x_at) / Fold change /veh SOX15 (11748057_x_at) / RFU CD79A (11719716_a_at) / Fold change /veh CD79A (11719716_a_at) / RFU HIST1H1D (11736915_at) / Fold change /veh HIST1H1D (11736915_at) / RFU CASKIN2 (11723855_a_at) / Fold change /veh CASKIN2 (11723855_a_at) / RFU LOC730098 (11760151_x_at) / Fold change /veh LOC730098 (11760151_x_at) / RFU OR4N2 (11742367_at) / Fold change /veh OR4N2 (11742367_at) / RFU PRRT2 (11749266_a_at) / Fold change /veh PRRT2 (11749266_a_at) / RFU SNX32 (11753110_a_at) / Fold change /veh SNX32 (11753110_a_at) / RFU CDHR5 (11726645_a_at) / Fold change /veh CDHR5 (11726645_a_at) / RFU RCAN1 (11760418_a_at) / Fold change /veh RCAN1 (11760418_a_at) / RFU FAM167A (11723789_a_at) / Fold change /veh FAM167A (11723789_a_at) / RFU FAM26E (11764081_at) / Fold change /veh FAM26E (11764081_at) / RFU ISYNA1 (11749810_s_at) / Fold change /veh ISYNA1 (11749810_s_at) / RFU ACY1 (11761880_at) / Fold change /veh ACY1 (11761880_at) / RFU 11764098_at / Fold change /veh 11764098_at / RFU SAMD14 (11745864_x_at) / Fold change /veh SAMD14 (11745864_x_at) / RFU NPB (11741838_a_at) / Fold change /veh NPB (11741838_a_at) / RFU TMPRSS6 (11731388_a_at) / Fold change /veh TMPRSS6 (11731388_a_at) / RFU KRTAP10-2 (11738614_at) / Fold change /veh KRTAP10-2 (11738614_at) / RFU ARHGAP8 /// PRR5-ARHGAP8 (11727945_x_at) / Fold change /veh ARHGAP8 /// PRR5-ARHGAP8 (11727945_x_at) / RFU KRTAP5-7 /// NADSYN1 (11734609_at) / Fold change /veh KRTAP5-7 /// NADSYN1 (11734609_at) / RFU RASL12 (11751679_a_at) / Fold change /veh RASL12 (11751679_a_at) / RFU CDKN2B (11736163_a_at) / Fold change /veh CDKN2B (11736163_a_at) / RFU PRF1 (11729649_at) / Fold change /veh PRF1 (11729649_at) / RFU, ZNF638 /// ZNF638-IT1 / Fold change vs veh, ZNF638 /// ZNF638-IT1 / RFU, PANK3 / Fold change vs veh, PANK3 / RFU, SH3YL1 / Fold change vs veh, SH3YL1 / RFU, ZEB2 / Fold change vs veh, ZEB2 / RFU, NRIP1 / Fold change vs veh, NRIP1 / RFU, PTTG1IP / Fold change vs veh, PTTG1IP / RFU, CAPN2 / Fold change vs veh, CAPN2 / RFU, MED14 / Fold change vs veh, MED14 / RFU, SNORA58 / Fold change vs veh, SNORA58 / RFU, C1orf63 / Fold change vs veh, C1orf63 / RFU, LRRFIP1 / Fold change vs veh, LRRFIP1 / RFU, NDUFAF7 / Fold change vs veh, NDUFAF7 / RFU, SLC12A2 / Fold change vs veh, SLC12A2 / RFU, IBTK / Fold change vs veh, IBTK / RFU, ESF1 / Fold change vs veh, ESF1 / Fold change vs veh, TMEM50B / RFU, TAOK1 / Fold change vs veh, TAOK1 / RFU, ACBD3 / Fold change vs veh, ACBD3 / RFU, TMA16 / Fold change vs veh, TMA16 / RFU, RWDD3 / Fold change vs veh, RWDD3 / RFU, BCAT1 / Fold change vs veh, BCAT1 / RFU, EDEM3 / Fold change vs veh, EDEM3 / RFU, TMEM33 / Fold change vs veh, TMEM33 / RFU, WDR75 / Fold change vs veh, WDR75 / RFU, AHCTF1 / Fold change vs veh, AHCTF1 / RFU, TFRC / Fold change vs veh, TFRC / RFU, ZDHHC17 / Fold change vs veh, ZDHHC17 / RFU, NOM1 / Fold change vs veh, NOM1 / RFU, ARL8B / Fold change vs veh, ARL8B / RFU, ZBTB11 / Fold change vs veh, ZBTB11 / RFU, TAMM41 / Fold change vs veh, TAMM41 / RFU, KIAA1704 /// LOC100996395 / Fold change vs veh, KIAA1704 /// LOC100996395 / RFU, ING1 / Fold change vs veh, ING1 / RFU, TRMT61B / Fold change vs veh, TRMT61B / RFU, FUBP3 / Fold change vs veh, FUBP3 / RFU, TP53 / Fold change vs veh, TP53 / RFU, TNKS2 / Fold change vs veh, TNKS2 / RFU, ZFP14 / Fold change vs veh, ZFP14 / RFU, ACTR2 / Fold change vs veh, ACTR2 / RFU, PPP3R1 / Fold change vs veh, PPP3R1 / RFU, PIK3R1 / Fold change vs veh, PIK3R1 / RFU, HNRNPA1 / Fold change vs veh, HNRNPA1 / RFU, RNF170 / Fold change vs veh, RNF170 / RFU, ZNF28 / Fold change vs veh, ZNF28 / RFU, RNGTT / Fold change vs veh, RNGTT / RFU, OGT / Fold change vs veh, OGT / RFU, BRD1 / Fold change vs veh, BRD1 / RFU, MARS / Fold change vs veh, MARS / RFU, ZNF655 / Fold change vs veh, ZNF655 / RFU, FAHD1 / Fold change vs veh, FAHD1 / RFU, BDP1 / Fold change vs veh, BDP1 / RFU, LRRCC1 / Fold change vs veh, LRRCC1 / RFU, ARID1A / Fold change vs veh, ARID1A / RFU, ZNF146 / Fold change vs veh, ZNF146 / RFU, ZNF330 / Fold change vs veh, ZNF330 / RFU, GPN3 / Fold change vs veh, GPN3 / RFU, C9orf123 / Fold change vs veh, C9orf123 / RFU, N4BP2L2 / Fold change vs veh, N4BP2L2 / RFU, ARFIP1 / Fold change vs veh, ARFIP1 / RFU, FAM179B / Fold change vs veh, FAM179B / RFU, BCL10 / Fold change vs veh, BCL10 / RFU, UHRF1BP1L / Fold change vs veh, UHRF1BP1L / RFU, BET1 / Fold change vs veh, BET1 / RFU, CNOT2 / Fold change vs veh, CNOT2 / RFU, ZNF268 / Fold change vs veh, ZNF268 / Fold change vs veh, ZNF507 / RFU, DGCR2 / Fold change vs veh, DGCR2 / RFU, WDSUB1 / Fold change vs veh, WDSUB1 / Fold change vs veh, HSP90B1 /// MIR3652 / RFU, ADSS / Fold change vs veh, ADSS / RFU, GK / Fold change vs veh, GK / RFU, ZNF148 / Fold change vs veh, ZNF148 / RFU, TAF9 / Fold change vs veh, TAF9 / RFU, SLC1A5 / Fold change vs veh, SLC1A5 / RFU, SLMO2 / Fold change vs veh, SLMO2 / RFU, ABCC4 / Fold change vs veh, ABCC4 / RFU, LOC101060439 /// RAP1B / Fold change vs veh, LOC101060439 /// RAP1B / RFU, RFX7 / Fold change vs veh, RFX7 / RFU, GTPBP10 / Fold change vs veh, GTPBP10 / RFU, CNEP1R1 / Fold change vs veh, CNEP1R1 / RFU, BIVM-ERCC5 /// ERCC5 / Fold change vs veh, BIVM-ERCC5 /// ERCC5 / RFU, ILF3 / Fold change vs veh, ILF3 / RFU 11762660_at / Fold change /veh 11762660_at / RFU VCAN (11757783_s_at) / Fold change /veh VCAN (11757783_s_at) / RFU DDX43 (11728927_at) / Fold change /veh DDX43 (11728927_at) / RFU KRT8 (11758188_x_at) / Fold change /veh KRT8 (11758188_x_at) / RFU NKD1 (11759106_at) / Fold change /veh NKD1 (11759106_at) / RFU SRD5A1 (11742802_a_at) / Fold change /veh SRD5A1 (11742802_a_at) / RFU TPSAB1 /// TPSB2 (11721975_s_at) / Fold change /veh TPSAB1 /// TPSB2 (11721975_s_at) / RFU GSTM3 (11746129_a_at) / Fold change /veh GSTM3 (11746129_a_at) / RFU IL23R (11737362_x_at) / Fold change /veh IL23R (11737362_x_at) / RFU TMEM51 (11727254_a_at) / Fold change /veh TMEM51 (11727254_a_at) / RFU PIWIL2 (11732686_x_at) / Fold change /veh PIWIL2 (11732686_x_at) / RFU ORM1 (11744905_x_at) / Fold change /veh ORM1 (11744905_x_at) / RFU CCDC152 (11743942_at) / Fold change /veh CCDC152 (11743942_at) / RFU ECM1 (11717891_a_at) / Fold change /veh ECM1 (11717891_a_at) / RFU IL23R (11748794_a_at) / Fold change /veh IL23R (11748794_a_at) / RFU TNFAIP8L3 (11732012_x_at) / Fold change /veh TNFAIP8L3 (11732012_x_at) / RFU MBOAT4 (11741988_at) / Fold change /veh MBOAT4 (11741988_at) / RFU 11764193_at / Fold change /veh 11764193_at / RFU TMEM53 (11763286_at) / Fold change /veh TMEM53 (11763286_at) / RFU MAGEB2 (11727129_at) / Fold change /veh MAGEB2 (11727129_at) / RFU TMEM200A (11744735_a_at) / Fold change /veh TMEM200A (11744735_a_at) / RFU CCDC152 (11751479_a_at) / Fold change /veh CCDC152 (11751479_a_at) / RFU FAM211A (11726209_a_at) / Fold change /veh FAM211A (11726209_a_at) / RFU RGS16 (11746705_a_at) / Fold change /veh RGS16 (11746705_a_at) / RFU VCAN (11755009_s_at) / Fold change /veh VCAN (11755009_s_at) / RFU RHOB (11743442_s_at) / Fold change /veh RHOB (11743442_s_at) / RFU RGS16 (11720943_a_at) / Fold change /veh RGS16 (11720943_a_at) / RFU RGS16 (11720944_at) / Fold change /veh RGS16 (11720944_at) / RFU, VPS4B / Fold change vs veh, VPS4B / RFU, CREB1 / Fold change vs veh, CREB1 / RFU, DNAJC13 / Fold change vs veh, DNAJC13 / RFU, GNAQ / Fold change vs veh, GNAQ / RFU, CDK5R1 / Fold change vs veh, CDK5R1 / RFU, ZRANB3 / Fold change vs veh, ZRANB3 / RFU, CUL4A / Fold change vs veh, CUL4A / RFU, CCNY / Fold change vs veh, CCNY / RFU, UFL1 / Fold change vs veh, UFL1 / RFU, COG3 / Fold change vs veh, COG3 / RFU, DIAPH2 / Fold change vs veh, DIAPH2 / RFU, SKA2 / Fold change vs veh, SKA2 / RFU, AFF3 / Fold change vs veh, AFF3 / RFU, LMF1 / Fold change vs veh, LMF1 / RFU, IPO11 / Fold change vs veh, IPO11 / RFU, DFFB / Fold change vs veh, DFFB / RFU, FOXP1 / Fold change vs veh, FOXP1 / RFU, CARD8 / Fold change vs veh, CARD8 / RFU, STRN3 / Fold change vs veh, STRN3 / RFU, ADK / Fold change vs veh, ADK / RFU, RASSF2 / Fold change vs veh, RASSF2 / RFU, WIPF1 / Fold change vs veh, WIPF1 / RFU, LARP1B / Fold change vs veh, LARP1B / RFU, RASA1 / Fold change vs veh, RASA1 / RFU, RB1 / Fold change vs veh, RB1 / RFU, PPFIA1 / Fold change vs veh, PPFIA1 / RFU, MAT2A / Fold change vs veh, MAT2A / RFU, CCT5 / Fold change vs veh, CCT5 / RFU, WDR92 / Fold change vs veh, WDR92 / RFU, CUX1 / Fold change vs veh, CUX1 / RFU, TTC7A / Fold change vs veh, TTC7A / RFU, TMEM135 / Fold change vs veh, TMEM135 / RFU, DEPTOR / Fold change vs veh, DEPTOR / RFU, CPM / Fold change vs veh, CPM / RFU, DNAJB6 / Fold change vs veh, DNAJB6 / RFU, CACNA2D3 / Fold change vs veh, CACNA2D3 / RFU, DTX4 / Fold change vs veh, DTX4 / RFU, TFCP2 / Fold change vs veh, TFCP2 / RFU, GMCL1 /// GMCL1P1 / Fold change vs veh, GMCL1 /// GMCL1P1 / RFU, AEBP2 / Fold change vs veh, AEBP2 / RFU, SNHG1 /// SNORD22 /// SNORD25 /// SNORD26 /// SNORD27 /// SNORD28 /// SNORD29 /// SNORD31 / Fold change vs veh, SNHG1 /// SNORD22 /// SNORD25 /// SNORD26 /// SNORD27 /// SNORD28 /// SNORD29 /// SNORD31 / Fold change (Aza/veh), C12orf56 (ProbeSet 11735607_a_at) / Fold change (ACY-1035/veh), C12orf56 (ProbeSet 11735607_a_at) / Fold change (Aza/veh), FGFR1OP (ProbeSet 11751329_s_at) / Fold change (ACY-1035/veh), FGFR1OP (ProbeSet 11751329_s_at) / Fold change (Aza/veh), VPS36 (ProbeSet 11739960_a_at) / Fold change (ACY-1035/veh), VPS36 (ProbeSet 11739960_a_at) / RFU SYPL1 (11715823_x_at) / Fold change /veh SYPL1 (11715823_x_at) / RFU IGFBP7 (11715501_s_at) / Fold change /veh IGFBP7 (11715501_s_at) / RFU REEP3 (11722064_at) / Fold change /veh REEP3 (11722064_at) / RFU IGLL1 (11728026_x_at) / Fold change /veh IGLL1 (11728026_x_at): dose or concentration left out as unconfirmed
Settings: MV-4-11 cells, 48 hours

Nc1ncn([C@@H]2O[C@H](CO)[C@@H](O)[C@H]2O)c(=O)n1 [azacitidine]
RFU CYB561 (11721691_x_at): 13.47 RFU
